PubChem BioAssay (NCI)
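Interpolation was linear, between the two tested concentrations surrounding the appropriate level; five concentrations were tested over 48 hours in 96-well plates. TGI is the concentration that stops growth completely.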

What was measured:
Assay in all cases: NCI-60 cell line screen, 48 h
SW-620 colon = tested on: SW-620 colon
UACC-257 melanoma = tested on: UACC-257 melanoma
NCI-H226 lung = tested on: NCI-H226 lung
OVCAR-5 ovarian = tested on: OVCAR-5 ovarian
CCRF-CEM leukemia = tested on: CCRF-CEM leukemia
CAKI-1 renal = tested on: CAKI-1 renal
OVCAR-4 ovarian = tested on: OVCAR-4 ovarian
NCI/ADR-RES ovarian = tested on: NCI/ADR-RES ovarian
SR leukemia = tested on: SR leukemia
MCF7 breast = tested on: MCF7 breast
KM12 colon = tested on: KM12 colon
T-47D breast = tested on: T-47D breast
RPMI-8226 leukemia = tested on: RPMI-8226 leukemia
MALME-3M melanoma = tested on: MALME-3M melanoma
OVCAR-3 ovarian = tested on: OVCAR-3 ovarian
HS 578T breast = tested on: HS 578T breast
MOLT-4 leukemia = tested on: MOLT-4 leukemia
DU-145 prostate = tested on: DU-145 prostate
SNB-19 CNS = tested on: SNB-19 CNS
K-562 leukemia = tested on: K-562 leukemia
SK-MEL-28 melanoma = tested on: SK-MEL-28 melanoma
EKVX NSCLC = tested on: EKVX NSCLC
M14 melanoma = tested on: M14 melanoma
NCI-H23 lung = tested on: NCI-H23 lung
HCT-15 colon = tested on: HCT-15 colon
SF-539 CNS = tested on: SF-539 CNS
HCC-2998 colon = tested on: HCC-2998 colon
A549 NSCLC = tested on: A549 NSCLC
ACHN renal = tested on: ACHN renal
SK-MEL-2 melanoma = tested on: SK-MEL-2 melanoma
SK-OV-3 ovarian = tested on: SK-OV-3 ovarian
SF-268 CNS = tested on: SF-268 CNS
HL-60(TB) leukemia = tested on: HL-60(TB) leukemia
IGROV1 ovarian = tested on: IGROV1 ovarian
PC-3 prostate = tested on: PC-3 prostate
UO-31 renal = tested on: UO-31 renal
RXF 393 renal = tested on: RXF 393 renal
BT-549 breast = tested on: BT-549 breast
NCI-H522 lung = tested on: NCI-H522 lung
U251 CNS = tested on: U251 CNS
786-0 renal = tested on: 786-0 renal
HOP-92 NSCLC = tested on: HOP-92 NSCLC
SN12C renal = tested on: SN12C renal
TK-10 renal = tested on: TK-10 renal
SF-295 CNS = tested on: SF-295 CNS
SK-MEL-5 melanoma = tested on: SK-MEL-5 melanoma
SNB-75 CNS = tested on: SNB-75 CNS
NCI-H460 lung = tested on: NCI-H460 lung
HT29 colon = tested on: HT29 colon
A498 renal = tested on: A498 renal
COLO 205 colon = tested on: COLO 205 colon
MDA-N = tested on: MDA-N
HOP-62 NSCLC = tested on: HOP-62 NSCLC
LOX IMVI melanoma = tested on: LOX IMVI melanoma
OVCAR-8 ovarian = tested on: OVCAR-8 ovarian
HCT-116 colon = tested on: HCT-116 colon
MDA-MB-231 breast = tested on: MDA-MB-231 breast
MDA-MB-435 = tested on: MDA-MB-435
UACC-62 melanoma = tested on: UACC-62 melanoma

`CC1=NN(c2nc(N)nc(NS(=O)(=O)c3cc(C)c(Cl)cc3S)n2)C(C)(C)C1` was tested, and the TGI (SW-620 colon) was greater than 10 µM, the TGI (UACC-257 melanoma) was greater than 10 µM and the TGI (NCI-H226 lung) was greater than 10 µM. For the same compound, the TGI (OVCAR-5 ovarian) was greater than 10 µM, the TGI (CCRF-CEM leukemia) was greater than 10 µM and the TGI (CAKI-1 renal) was greater than 10 µM. It also gave a TGI (OVCAR-4 ovarian) greater than 10 µM, a TGI (NCI/ADR-RES ovarian) greater than 10 µM and a TGI (SR leukemia) greater than 10 µM. For the same compound, the TGI (MCF7 breast) was greater than 10 µM, the TGI (KM12 colon) was greater than 10 µM and the TGI (T-47D breast) was greater than 10 µM. The TGI (RPMI-8226 leukemia) was greater than 10 µM, the TGI (MALME-3M melanoma) was greater than 10 µM and the TGI (OVCAR-3 ovarian) was greater than 10 µM. It also gave a TGI (HS 578T breast) greater than 10 µM, a TGI (MOLT-4 leukemia) greater than 10 µM and a TGI (DU-145 prostate) greater than 10 µM. It also gave a TGI (SNB-19 CNS) greater than 10 µM, a TGI (K-562 leukemia) greater than 10 µM and a TGI (SK-MEL-28 melanoma) greater than 10 µM. For the same compound, the TGI (EKVX NSCLC) was greater than 10 µM, the TGI (M14 melanoma) was greater than 10 µM and the TGI (NCI-H23 lung) was greater than 10 µM. It also gave a TGI (HCT-15 colon) greater than 10 µM, a TGI (SF-539 CNS) greater than 10 µM and a TGI (HCC-2998 colon) greater than 10 µM. For the same compound, the TGI (A549 NSCLC) was greater than 10 µM, the TGI (ACHN renal) was greater than 10 µM and the TGI (SK-MEL-2 melanoma) was greater than 10 µM. It also gave a TGI (SK-OV-3 ovarian) greater than 10 µM, a TGI (SF-268 CNS) greater than 10 µM and a TGI (HL-60(TB) leukemia) greater than 10 µM. For the same compound, the TGI (IGROV1 ovarian) was greater than 10 µM, the TGI (PC-3 prostate) was greater than 10 µM and the TGI (UO-31 renal) was greater than 10 µM. For the same compound, the TGI (RXF 393 renal) was greater than 10 µM, the TGI (BT-549 breast) was greater than 10 µM and the TGI (NCI-H522 lung) was greater than 10 µM. The TGI (U251 CNS) was greater than 10 µM, the TGI (786-0 renal) was greater than 10 µM and the TGI (HOP-92 NSCLC) was greater than 10 µM. The TGI (SN12C renal) was greater than 10 µM, the TGI (TK-10 renal) was greater than 10 µM and the TGI (SF-295 CNS) was greater than 10 µM. For the same compound, the TGI (SK-MEL-5 melanoma) was greater than 10 µM, the TGI (SNB-75 CNS) was greater than 10 µM and the TGI (NCI-H460 lung) was greater than 10 µM. It also gave a TGI (HT29 colon) greater than 10 µM, a TGI (A498 renal) greater than 10 µM and a TGI (COLO 205 colon) greater than 10 µM. For the same compound, the TGI (MDA-N) was greater than 10 µM, the TGI (HOP-62 NSCLC) was greater than 10 µM and the TGI (LOX IMVI melanoma) was greater than 10 µM. For the same compound, the TGI (OVCAR-8 ovarian) was greater than 10 µM and the TGI (HCT-116 colon) was greater than 10 µM.
With `CCOC(=O)c1c[nH]c(C(=O)OCC)c1-c1cccn1-c1ccccc1` the TGI (SW-620 colon) was greater than 100 µM, the TGI (UACC-257 melanoma) was greater than 100 µM and the TGI (NCI-H226 lung) was 98.8 µM. It also gave a TGI (OVCAR-5 ovarian) greater than 100 µM, a TGI (CCRF-CEM leukemia) of 52.2 µM and a TGI (CAKI-1 renal) of 67.7 µM. For the same compound, the TGI (MDA-MB-231 breast) was greater than 100 µM, the TGI (NCI/ADR-RES ovarian) was 76 µM and the TGI (KM12 colon) was 24.6 µM. For the same compound, the TGI (T-47D breast) was greater than 100 µM, the TGI (RPMI-8226 leukemia) was 52.6 µM and the TGI (MALME-3M melanoma) was 56.4 µM. It also gave a TGI (OVCAR-3 ovarian) of 37.4 µM, a TGI (HS 578T breast) of 59 µM and a TGI (MOLT-4 leukemia) of 53 µM. For the same compound, the TGI (DU-145 prostate) was greater than 100 µM, the TGI (SNB-19 CNS) was greater than 100 µM and the TGI (K-562 leukemia) was 45.4 µM. It also gave a TGI (SK-MEL-28 melanoma) of 79.5 µM, a TGI (MDA-MB-435) greater than 100 µM and a TGI (EKVX NSCLC) greater than 100 µM. It also gave a TGI (M14 melanoma) of 41.9 µM, a TGI (NCI-H23 lung) greater than 100 µM and a TGI (HCT-15 colon) greater than 100 µM. It also gave a TGI (UACC-62 melanoma) of 38.9 µM, a TGI (A549 NSCLC) greater than 100 µM and a TGI (ACHN renal) greater than 100 µM. It also gave a TGI (SK-MEL-2 melanoma) of 35.5 µM, a TGI (SK-OV-3 ovarian) of 90.6 µM and a TGI (SF-268 CNS) greater than 100 µM. The TGI (HL-60(TB) leukemia) was 54.4 µM, the TGI (IGROV1 ovarian) was 51.9 µM and the TGI (PC-3 prostate) was 82.5 µM. For the same compound, the TGI (UO-31 renal) was 77.4 µM, the TGI (RXF 393 renal) was 43 µM and the TGI (BT-549 breast) was greater than 100 µM. For the same compound, the TGI (NCI-H522 lung) was 55.4 µM, the TGI (U251 CNS) was 48 µM and the TGI (786-0 renal) was greater than 100 µM. It also gave a TGI (HOP-92 NSCLC) greater than 100 µM, a TGI (SN12C renal) of 69.2 µM and a TGI (TK-10 renal) greater than 100 µM. The TGI (SF-295 CNS) was 52.3 µM, the TGI (SK-MEL-5 melanoma) was 28.4 µM and the TGI (SNB-75 CNS) was 52.2 µM. For the same compound, the TGI (NCI-H460 lung) was 65.5 µM, the TGI (HT29 colon) was 89.9 µM and the TGI (A498 renal) was 86.2 µM. It also gave a TGI (COLO 205 colon) of 38.5 µM, a TGI (MDA-N) of 99.2 µM and a TGI (HOP-62 NSCLC) of 50 µM. For the same compound, the TGI (LOX IMVI melanoma) was 32.4 µM, the TGI (OVCAR-8 ovarian) was 59.6 µM and the TGI (HCT-116 colon) was 30.3 µM.
